Assay results from ChEMBL document CHEMBL1150888, “Dragmacidins: new protein phosphatase inhibitors from a southern australian deep-water marine sponge, spongosorites sp” (1998).
Converted amounts (≈) assume the structure as drawn. The source made the active and inactive calls. No cut-off for these calls is given here.

Experiments:
Escherichia coli = test: Antibacterial activity against Escherichia coli; type: functional
[1] = Inhibition of PP1
Candida albicans = test: Antifungal activity against Candida albicans; type: functional
[2] = Inhibition of PP2A

MIC (Escherichia coli) | Activity [1] | MIC (Candida albicans) | Activity [2] | SMILES
16 µg/mL (≈ 30.1 µM) | Active | 20 µg/mL (≈ 37.6 µM) |  | CC(C1=CNC(N)N1)c1ccc(O)c2[nH]cc(-c3cnc(-c4c[nH]c5cc(Br)ccc45)c(=O)[nH]3)c12 (configuration not stated) [DRAGMACIDIN D]
22 µg/mL (≈ 41.5 µM) | Active | 36 µg/mL (≈ 67.9 µM) | Active | C[C@@H]1c2ccc(O)c3[nH]cc(c23)-c2[nH]c(=O)c(-c3c[nH]c4cc(Br)ccc34)nc2[C@@]12CNC(N)=N2 [DRAGMACIDIN E]
